Data taken from PubChem BioAssay (NCI).
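Results reflect a 48-hour exposure of cells in 96-well plates to compound at five concentrations. TGI: total growth inhibition.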

How the values were obtained:
Experiment in all cases: NCI-60 cell line screen, 48 h
LOX IMVI melanoma = system: LOX IMVI melanoma
HCT-116 colon = system: HCT-116 colon
MOLT-4 leukemia = system: MOLT-4 leukemia
786-0 renal = system: 786-0 renal
M19-MEL melanoma = system: M19-MEL melanoma
SW-620 colon = system: SW-620 colon
DLD-1 colon = system: DLD-1 colon
HCC-2998 colon = system: HCC-2998 colon
SNB-75 CNS = system: SNB-75 CNS
OVCAR-3 ovarian = system: OVCAR-3 ovarian
OVCAR-4 ovarian = system: OVCAR-4 ovarian
RXF 393 renal = system: RXF 393 renal
SF-295 CNS = system: SF-295 CNS
HOP-92 NSCLC = system: HOP-92 NSCLC
UACC-257 melanoma = system: UACC-257 melanoma
RXF-631 renal = system: RXF-631 renal
HOP-62 NSCLC = system: HOP-62 NSCLC
IGROV1 ovarian = system: IGROV1 ovarian
MALME-3M melanoma = system: MALME-3M melanoma
HCT-15 colon = system: HCT-15 colon
SNB-78 CNS = system: SNB-78 CNS
EKVX NSCLC = system: EKVX NSCLC
SF-268 CNS = system: SF-268 CNS
SK-OV-3 ovarian = system: SK-OV-3 ovarian
NCI-H522 lung = system: NCI-H522 lung
HL-60(TB) leukemia = system: HL-60(TB) leukemia
A498 renal = system: A498 renal
NCI-H460 lung = system: NCI-H460 lung
SK-MEL-5 melanoma = system: SK-MEL-5 melanoma
COLO 205 colon = system: COLO 205 colon
UO-31 renal = system: UO-31 renal
SN12C renal = system: SN12C renal
NCI-H226 lung = system: NCI-H226 lung
SK-MEL-2 melanoma = system: SK-MEL-2 melanoma
SNB-19 CNS = system: SNB-19 CNS
ACHN renal = system: ACHN renal
HOP-18 NSCLC = system: HOP-18 NSCLC
CCRF-CEM leukemia = system: CCRF-CEM leukemia
A549 NSCLC = system: A549 NSCLC
M14 melanoma = system: M14 melanoma
OVCAR-5 ovarian = system: OVCAR-5 ovarian
UACC-62 melanoma = system: UACC-62 melanoma
DMS 114 small cell lung = system: DMS 114 small cell lung
SF-539 CNS = system: SF-539 CNS
KM12 colon = system: KM12 colon
LXFL 529 NSCLC = system: LXFL 529 NSCLC
HT29 colon = system: HT29 colon
OVCAR-8 ovarian = system: OVCAR-8 ovarian
CAKI-1 renal = system: CAKI-1 renal
K-562 leukemia = system: K-562 leukemia
SK-MEL-28 melanoma = system: SK-MEL-28 melanoma
XF 498 CNS = system: XF 498 CNS
TK-10 renal = system: TK-10 renal
DMS 273 small cell lung = system: DMS 273 small cell lung
U251 CNS = system: U251 CNS
KM20L2 colon = system: KM20L2 colon
RPMI-8226 leukemia = system: RPMI-8226 leukemia
NCI-H23 lung = system: NCI-H23 lung

Measured: TGI

Cc1ccc(S(=O)(=O)c2ccccn2)cc1
97.2 µM: OVCAR-5 ovarian
> 100 µM: all other assays above
